# According to patent US20220304911A1, “ORAL CARE PRODUCT WITH CANNABINOID COMPOUNDS” (Demetrix, Inc., priority 2021, published 2022):
# Where two headings read alike, the source gives them in different places.
# Test system: Streptococcus mutans (S. mutans)
# Assay: minimum inhibitory concentration (MIC) assay against S. mutans
# Assay type: cell-based
# Experimental: As used herein “minimum inhibitory concentration” or “MIC” refers to the lowest concentration (in μg/mL) of an antibiotic that inhibits the growth of a given strain of bacteria.
# To determine the ability of the cannabinoid compounds described herein to reduce, or eliminate, S. mutans, a minimum inhibitory concentration (“MIC”) assay was performed. The assay was performed by Charles River Discovery Research Services UK Limited (Portishead, United Kingdom) in accordance with industry standards.
# [1] = S. mutans, assay performed by Charles River Discovery Research Services UK Limited
# [2] = Streptococcus mutans, read-out: minimum inhibitory concentration (MIC) against S. mutans
Compound,MIC [1],MIC (Streptococcus mutans),MIC [2],also measured
"CCCCCc1cc2c(c(O)c1C(=O)O)C1C3C(CCC3(C)O2)C1(C)C (stereo not shown) [CBLA, cannabicyclolic acid]",>200 µg/mL,,,
(+)-cannabidiol [(+)-CBD],25 µg/mL,,,
"CCCCCc1cc2c(c(O)c1C(=O)O)C=CC(C)(CCC=C(C)C)O2 (stereo not shown) [CBCA, cannabichromenic acid]",>200 µg/mL,,,
"CCCCCc1cc(O)c2c(c1)OC1(C)CCC3C1C2C3(C)C (stereo not shown) [CBL, cannabicyclol]",,> 200 µg/mL,> 25 µg/mL,
"CCCCc1cc(O)c(C/C=C(\C)CCC=C(C)C)c(O)c1C(=O)O [CBGA-C4, cannabigerolic acid butyl]",12.5 µg/mL,,,
"CCCCc1cc(O)c(CC=C(C)CCC=C(C)C)c(O)c1 [CBG-C4, cannabigerol butyl]",25 µg/mL,,,
"C=C(C)[C@@H]1CCC(C)=C[C@H]1c1c(O)cc(CCC)c(C(=O)O)c1O [CBDVA, cannabidivarinic acid]",25 µg/mL,,,
"CCCc1cc(O)c(C/C=C(\C)CCC=C(C)C)c(O)c1 [CBGV, cannabigerovarin]",25 µg/mL,,,
"CCCc1cc(O)c(C/C=C(\C)CCC=C(C)C)c(O)c1C(=O)O [CBGVA, cannabigerovarinic acid]",>200 µg/mL,,,
"C=C(C)[C@@H]1CCC(C)=C[C@H]1c1c(O)cc(CC)cc1O [CBD-C2, cannabidiol ethyl]",25 µg/mL,,,
"C=C(C)[C@@H]1CCC(C)=C[C@H]1c1c(O)cc(CCCCC)cc1O [CBD, cannabidiol]",,,,"MIC (Streptococcus mutans, S. mutans, assay performed by Charles River Discovery Research Services UK Limited, read-out: MIC): 25 µg/mL; MIC (Streptococcus mutans, S. mutans, summary statement in the description, read-out: minimum inhibitory concentration (MIC) against S. mutans): < 25 µg/mL"
"C=C(C)[C@@H]1CCC(C)=C[C@H]1c1c(O)cc(CCC)cc1O [CBDV, cannabidivarin]",,25 µg/mL,< 25 µg/mL,
"CCCCCc1cc(O)c(C/C=C(\C)CCC=C(C)C)c(O)c1C(=O)O [CBGA, cannabigerolic acid]",,25 µg/mL,< 25 µg/mL,
"CCCCCc1cc(O)c2c(c1)OC(C)(CCC=C(C)C)C=C2 (stereo not shown) [CBC, cannabichromene]",,25 µg/mL,< 25 µg/mL,
"C=C(C)[C@@H]1CCC(C)=C[C@H]1c1c(O)cc(CCCCC)c(C(=O)O)c1O [CBDA, cannabidiolic acid]",,25 µg/mL,< 25 µg/mL,
C=C(C)[C@@H]1CCC(C)=C[C@H]1c1c(O)cc(C)cc1O [CBD-C1],100 µg/mL,,,
"CCCCCc1cc2c(c(O)c1C(=O)O)-c1cc(C)ccc1C(C)(C)O2 [CBNA, cannabinolic acid]",>200 µg/mL,,,
"CCCCCc1cc(O)c2c(c1)OC(C)(C)c1ccc(C)cc1-2 [CBN, cannabinol]",,50 µg/mL,> 25 µg/mL,
"CCCCCc1cc(O)c(C/C=C(\C)CCC=C(C)C)c(O)c1 [CBG, cannabigerol]",,25 µg/mL,< 25 µg/mL,
"C=C(C)[C@@H]1CCC(C)=C[C@H]1c1c(O)cc(CCCC)cc1O [CBD-C4, cannabidibutol]",25 µg/mL,,,
